What was measured:
[1] = molecular target: T1, HOD (1-H-3-hydroxy-4-oxoquinaldine 2,4-dioxygenase) (Paenarthrobacter nitroguajacolicus, UniProt O31266, H251A); assay: X-ray crystallography, normoxic and O2-pressurised (soak-and-freeze); type: binding; conditions: 2.0 Å (normoxic) and 2.1 Å (hyperoxic, 40 bar O2, 2 min); active site, non-reactive substrate analogue
T1 construct: crystallised protein; construct, tags and host only in supplement

[2] = molecular target: T2, HOD (1-H-3-hydroxy-4-oxoquinaldine 2,4-dioxygenase) (Paenarthrobacter nitroguajacolicus, UniProt O31266, S101A); assay: as above; type: binding; conditions: 2.0 Å; with water (normoxic) or O2 (40 bar, 2 min) at the R-site; active site
T2 construct: crystallised protein; construct, tags and host only in supplement

## Cc1cc(=O)c2ccccc2[nH]1 [MQO, 2-methyl-quinolin-4(1H)-one]
[1]
  X-ray crystallography, normoxic and O2-pressurised (soak-and-freeze): MQO binds in the active site similarly to QND
[2]
  X-ray crystallography, normoxic and O2-pressurised (soak-and-freeze): we then solved the structure of HOD^S101A in a complex with MQO

Reference: paper PMC10548524, “Evolutionary adaptation from hydrolytic to oxygenolytic catalysis at the α/β-hydrolase fold” (Chemical Science, 2023)
